Laboratory results reported in patent US20260184675A1, “CHIRAL ISOMERIC SULFITE COMPOUND AND APPLICATION THEREOF” (Chengdu Hanova BioSciences Co., Ltd, priority 2024, published 2026).

Key:
[1] = system: pest eggs of Tetranychus cinnabarinus; assay: Effect on hatching of pest eggs of Tetranychus cinnabarinus, leaf disc method; format: in vivo; conditions: for Hatching rate (%): 7 days after insecticide delivery; for inhibitory effect on the hatching of pest eggs of Tetranychus cinnabarinus (in words): 1 ppm
Experimental: • (1) Preparation of leaf discs containing eggs: 20 female adult mites of Tetranychus cinnabarinus were transferred onto leaf discs of Vicia faba with a diameter of 2.0 cm (with wetted filter paper at the bottom), then covered it with a lidded culture dish and cultivated under moisturizing conditions, the adult mites were removed within 36 hours and microscopic examination and counting were performed on leaf discs containing eggs. • (2) Investigation of egg population base: Before pesticide soaking, a microscopic examination was conducted on the egg basic number of each leaf disc, with 2 replicates set for each treatment. • (3) Pesticide soaking treatment: The leaf butterflies loaded with mite eggs were soaked in clear water and sulfite compounds for 10 seconds, respectively, then taken out and cultivated under moisturizing conditions. Each treatment should be repeated for no less than 3 times. • (4) Cultivation and observation: The […] were cultivated under normal conditions. Five days after insecticide delivery, the hatching status of mite eggs was investigated. • Note: The temperature and humidity conditions of the constant temperature and humidity incubator after the treatment should be controlled so as to avoid excessive temperature differences, which may cause generation and dripping of condensate water in the culture dish, resulting in abnormal death of eggs due to soaking in water; it is also necessary to ensure sufficient strong ambient light, without directing irradiating the leaves. • (5) Survey of Results: The experimental materials of each treatment group were regularly hydrated and moisturized, and the hatching of eggs was observed. On the 7th day after insecticide delivery, the number of hatched eggs for each treatment was recorded, and the survey of results was recorded in the original notebook. According to the experimental requirements and characteristics of agents, the survey time can be shortened or extended. • 1) Surveying and recording the number of hatched eggs for each treatment. • 2) Photographing and recording whether there was any pesticide damage to the leaf discs of Vicia faba. • 3) Recording the developmental status of experimental mite eggs, behavior status of nymph mites, including abnormal phenomena such as delayed or stopped development of mite eggs, difficulty in breaking hull for nymph mites, or painful struggles after hatching, etc. • (6) Calculation method: Based on the survey data, the prevention and control effect of each treatment was calculated according to the following formula, and the calculation results were kept to two decimal places. [formula] [formula] [table]

[2] = system: eggs of Spodoptera litura; assay: Effect on hatching of eggs of Spodoptera litura, egg piece soaking; format: in vivo; conditions: 500 ppm; for Hatching rate (%), Replicate 1 / Hatching rate (%), Replicate 2 / Hatching rate (%), Replicate 3 / Number of unhatched larvae 4 days after insecticide delivery, Replicate 1 / Number of unhatched larvae 4 days after insecticide delivery, Replicate 2 / Number of unhatched larvae 4 days after insecticide delivery, Replicate 3: Spodoptera litura eggs; for Hatching rate (%), Replicate 1 / Hatching rate (%), Replicate 2 / Hatching rate (%), Replicate 3: 4 days after delivery; for Number of unhatched larvae 4 days after insecticide delivery, Replicate 1 / Number of unhatched larvae 4 days after insecticide delivery, Replicate 2 / Number of unhatched larvae 4 days after insecticide delivery, Replicate 3: soaked 10 minutes
Experimental: • (1) Preparation of paper containing eggs: the egg mass was cut into small pieces, each containing about 60 eggs, soaked in a preformulated test agent for 10 minutes together with paper for egg raising (concentration of each compound of 500 ppm). After taken out, absorbent paper was used to absorb the excess solution adhered to the paper for egg raising and egg pieces. (2) Cultivation: Each egg piece was separately placed in a glass test tube (5.0 cm in height, 2.5 cm in diameter, the same below), which was sealed with plastic paper punctured with fine holes using insect needles and cultivated in an artificial climate chamber at a temperature of (24±1° C.), a relative humidity of (80±10) %, and a photoperiod of L:D=12:12. When the eggs developed until they were about to hatch, castor leaves with a diameter of about 3 cm were added for feeding the hatching larvae; • (3) Observation: the number of hatched and unhatched eggs per egg piece was checked and recorded, and the hatching rate of eggs was calculated according to the formula. Each treatment was repeated for 3 times. • (4) Survey of results: The experimental materials of each treatment group were regularly hydrated and moisturized, and the hatching of eggs was observed. On the 4th day after insecticide delivery, the number of hatched eggs for each treatment was recorded, and the survey of results was recorded in the original notebook. According to the experimental requirements and characteristics of agents, the survey time can be shortened or extended. • 1) Surveying and recording the number of hatched eggs for each treatment. • 2) Recording the developmental status of experimental eggs of Spodoptera litura, behavior status of nymphs, including abnormal phenomena such as delayed or stopped development of eggs of Spodoptera litura, etc. • (5) Calculation method: Based on the survey data, the prevention and control effect of each treatment was calculated according to the following formula, and the calculation results were kept to two decimal places. [formula] [formula]

Structure (SMILES)	Hatching rate (%) ([1]; 0.25 mg/L, Replicate 1)	Hatching rate (%) ([1]; 0.25 mg/L, Replicate 2)	Number of hatched larvae 7 days after insecticide delivery ([1]; 0.25 mg/L, Replicate 1)	Number of hatched larvae 7 days after insecticide delivery ([1]; 0.25 mg/L, Replicate 2)	Hatching rate (%) ([1]; 0.5 mg/L, Replicate 1)	Hatching rate (%) ([1]; 0.5 mg/L, Replicate 2)	Number of hatched larvae 7 days after insecticide delivery ([1]; 0.5 mg/L, Replicate 1)	Number of hatched larvae 7 days after insecticide delivery ([1]; 0.5 mg/L, Replicate 2)	Hatching rate (%) ([1]; 1 mg/L, Replicate 1)	Hatching rate (%) ([1]; 1 mg/L, Replicate 2)	Number of hatched larvae 7 days after insecticide delivery ([1]; 1 mg/L, Replicate 1)	Number of hatched larvae 7 days after insecticide delivery ([1]; 1 mg/L, Replicate 2)	inhibitory effect on the hatching of pest eggs of Tetranychus cinnabarinus (in words) [1]	inhibitory activity on the hatching of eggs of Spodoptera litura (in words) [2]	Hatching rate (%), Replicate 1 [2]	Hatching rate (%), Replicate 2 [2]	Hatching rate (%), Replicate 3 [2]	Number of unhatched larvae 4 days after insecticide delivery, Replicate 1 [2]	Number of unhatched larvae 4 days after insecticide delivery, Replicate 2 [2]	Number of unhatched larvae 4 days after insecticide delivery, Replicate 3 [2]	other results
CC(COc1ccc(Cl)cc1Cl)OS(=O)OCCF [1′-(S,R)]	42.86%	44.83%	28	32	8.89%	3.23%	41	60	0.00%	0.00%	69	78	excellent inhibitory effects	good inhibitory activities	–	–	–	–	–	–	Hatching rate (%), Replicate 1 ([2]; listed as 1′-(S, R)): 27.87%; Hatching rate (%), Replicate 2 ([2]; listed as 1′-(S, R)): 26.98%; Hatching rate (%), Replicate 3 ([2]; listed as 1′-(S, R)): 21.05%; Number of unhatched larvae 4 days after insecticide delivery, Replicate 1 ([2]; listed as 1′-(S, R)): 44; Number of unhatched larvae 4 days after insecticide delivery, Replicate 2 ([2]; listed as 1′-(S, R)): 46; Number of unhatched larvae 4 days after insecticide delivery, Replicate 3 ([2]; listed as 1′-(S, R)): 45
CCC(COc1ccc(Cl)cc1Cl)OS(=O)OCCF [19-(R,R)]	75.00%	76.00%	18	18	36.23%	36.00%	–	34	14.89%	16.67%	40	55	–	–	–	–	–	–	–	–	Hatching rate (%), Replicate 1 ([2]; listed as 19-(R, R)): 50.85%; Hatching rate (%), Replicate 2 ([2]; listed as 19-(R, R)): 51.61%; Hatching rate (%), Replicate 3 ([2]; listed as 19-(R, R)): 50.79%; Number of unhatched larvae 4 days after insecticide delivery, Replicate 1 ([2]; listed as 19-(R, R)): 29; Number of unhatched larvae 4 days after insecticide delivery, Replicate 2 ([2]; listed as 19-(R, R)): 30; Number of unhatched larvae 4 days after insecticide delivery, Replicate 3 ([2]; listed as 19-(R, R)): 31
CCC(COc1ccc(Cl)cc1Cl)OS(=O)OCCF (stereo not drawn) [Compound 19]	72.22%	69.74%	15	23	34.69%	30.49%	32	57	0.00%	0.00%	71	65	excellent inhibitory effects	–	29.41%	30.16%	29.82%	36	44	40	–
C[C@H](COS(=O)OCCF)Oc1ccc(Cl)cc1Cl (stereo partly drawn) [1-(R,R)]	45.45%	45.10%	36	28	4.26%	5.56%	45	68	0.00%	0.00%	56	62	excellent inhibitory effects	good inhibitory activities	–	–	–	–	–	–	Hatching rate (%), Replicate 1 ([2]; listed as 1-(R, R)): 22.39%; Hatching rate (%), Replicate 2 ([2]; listed as 1-(R, R)): 21.05%; Hatching rate (%), Replicate 3 ([2]; listed as 1-(R, R)): 23.73%; Number of unhatched larvae 4 days after insecticide delivery, Replicate 1 ([2]; listed as 1-(R, R)): 47; Number of unhatched larvae 4 days after insecticide delivery, Replicate 2 ([2]; listed as 1-(R, R)): 45; Number of unhatched larvae 4 days after insecticide delivery, Replicate 3 ([2]; listed as 1-(R, R)): 45
CC(COS(=O)OCCF)Oc1ccc(Cl)cc1Cl (stereo not drawn) [Compound 1]	72.22%	67.92%	20	17	32.58%	38.30%	42	29	0.00%	1.64%	53	60	excellent inhibitory effects	–	41.38%	39.68%	40.42%	34	38	37	–
CCC(COS(=O)OCCF)Oc1ccc(Cl)cc1Cl (stereo not drawn) [Compound 19′]	70.21%	73.24%	14	19	34.72%	34.43%	47	40	1.89%	0.00%	52	63	excellent inhibitory effects	–	32.76%	32.14%	35.94%	39	38	41	–
